Results taken from patent US11518764B2, “Substituted heteroaryls as inhibitors of the BCL6 BTB domain protein-protein interaction” (Ontario Institute for Cancer Research (OICR), priority 2018, dated 2022).
pKd: −log10 of the molar value.

Columns and labels:
BCL6 BTB domain = BCL6 BTB domain (Homo sapiens (Human), UniProt P41182); experiment: Surface plasmon resonance (SPR) assay; format: binding; conditions: BCL6 BTB domain captured on SA chip, single cycle kinetics
[1] = test system: BCL6 reporter construct (3xBCL6-TK-Luc) in SuDHL4 cells; experiment: Cell-based luciferase assay; conditions: Homo sapiens, SU-DHL-4, 48 h, read-out: Luciferase-Assay EC50, uM), SuDHL4-3xBCL6-TK-Luc cells, two days, high dose 10 uM
Method in brief: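 SuDHL4 cells stably carrying a 3×BCL6-site TK-promoter firefly luciferase reporter, seeded at 15,000 cells/well, were dosed over a 10-point range (top 10 uM) and grown two days at 37 °C, 5% CO2. Luminescence then read after adding neolite reagent at room temperature.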

Karpas422 cells = experiment: Tumor cell growth inhibition assay; format: cell-based; conditions: Homo sapiens, KARPAS-422, 144 h, read-out: Tumor Growth Inhibition in Karpas-422 (IC50, uM), Karpas422 cells, six days, ATPlite
Method in brief: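 Growth inhibition was measured by ATPlite luminescence after six days of culture at 37° C. in 5% CO2. Karpas422 cells were seeded at 2,000 per well in Alpha-MEM plus 10% FBS. Compounds were given as a 10-point concentration series with a highest dose of 5 uM.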

SMILES	pKd (BCL6 BTB domain)	EC50 [1]	IC50 (Karpas422 cells)
Cn1cnc2c(c(-c3cc(Cl)c(O)c(C(N)=O)c3)cn2CC(=O)Nc2cc(N3CCOC4COCC43)ncc2Cl)c1=O (stereo not drawn) [Compound I-277]	7.68	0.418 µM	0.255 µM
CN1CC2CCC(C1)N2c1cc(NC(=O)Cn2cc(-c3cc(F)c(O)c(C(N)=O)c3)c3c(=O)n(C)cnc32)c(Cl)cn1 [Compound I-477]	8.00	0.328 µM	0.272 µM
Cc1cc(NC(=O)Cn2cc(-c3cc(Cl)c(O)c(C(N)=O)c3)c3c(=O)n(C)cnc32)c(Cl)cn1 [Compound I-334]	7.52	0.475 µM	0.829 µM
Cc1cc(NC(=O)Cn2cc(-c3cc(C(N)=O)c(O)c(F)c3F)c3c(=O)n(C)cnc32)c(Cl)cn1 [Compound I-333]	6.84	2.42 µM	4.21 µM
CC(C1CC1)N1CCN(c2cc(NC(=O)Cn3cc(-c4cc(F)c(O)c(C(N)=O)c4)c4c(=O)n(C)cnc43)c(Cl)cn2)[C@@H](C)C1 (stereo partly drawn) [Compound I-391]	8.14	0.0672 µM	0.0726 µM
Cc1nc2c(c(-c3cc(C(N)=O)c(O)c(F)c3F)cn2CC(=O)Nc2cc(N3CCN(C)CC3)ncc2Cl)c(=O)n1C [Compound I-305]	7.15	0.647 µM	1.32 µM
C[C@H]1COCCN1c1cc(NC(=O)Cn2cc(-c3cc(Cl)c(O)c(C(N)=O)c3)c3c(=O)n(C)c(Cl)nc32)c(Cl)cn1 [Compound I-262]	7.64	0.468 µM	0.389 µM
CN1CC2CCC(C1)N2c1cc(NC(=O)Cn2cc(-c3cc(Cl)c(O)c(C(N)=O)c3)c3c(=O)n(C)cnc32)c(Cl)cn1 [Compound I-348]	7.87	0.479 µM	0.15 µM
Cn1cnc2c(c(-c3cc(C(N)=O)c(O)cc3F)cn2CC(=O)Nc2cc(N3CCOCC3)ncc2F)c1=O [Compound I-222]	6.64	1.33 µM	0.371 µM
CN(C)CC1COCCN1c1cc(NC(=O)Cn2cc(-c3cc(Cl)c(O)c(C(N)=O)c3)c3c(=O)n(C)cnc32)c(Cl)cn1 (stereo not drawn) [Compound I-330]	7.40	0.89 µM	0.56 µM
C[C@@H](CO)Nc1cc(NC(=O)Cn2cc(-c3cc(Cl)c(O)c(C(N)=O)c3)c3c(=O)n(C)cnc32)c(Cl)cn1 [Compound I-198]	7.66	5.82 µM	3.02 µM
Cn1cnc2c(c(-c3cc(C(N)=O)c(O)c(F)c3F)cn2CC(=O)Nc2cc(N3CC4CC3CO4)ncc2Cl)c1=O (stereo not drawn) [Compound I-286]	7.08	1.96 µM	1.54 µM
COCn1c(Cl)nc2c(c(-c3cc(Cl)c(O)c(C(N)=O)c3)cn2CC(=O)Nc2cc(N3CCN(C)C[C@@H]3C)ncc2Cl)c1=O [Compound I-323]	7.00	1.09 µM	0.914 µM
CN(C)c1cc(NC(=O)Cn2cc(-c3cc(Cl)c(O)c(C(N)=O)c3)c3c(=O)n(C)c(Cl)nc32)c(Cl)cn1 [Compound I-292]	7.09	1.66 µM	0.575 µM
C[C@@H]1CN(c2cc(NC(=O)Cn3cc(-c4cc(C(N)=O)c(O)c(F)c4F)c4c(=O)n(C)cnc43)c(Cl)cn2)C[C@H](C)O1 [Compound I-179]	7.11	0.612 µM	0.681 µM
COCCN1CCN(c2cc(NC(=O)Cn3cc(-c4cc(Cl)c(O)c(C(N)=O)c4)c4c(=O)n(C)cnc43)c(Cl)c(F)n2)[C@@H](C)C1 [Compound I-447]	8.04	0.113 µM	0.0709 µM
Cn1c(NCC2CC2)nc2c(c(-c3cc(Cl)c(O)c(C(N)=O)c3)cn2CC(=O)Nc2cc(N3CCOCC3)ncc2Cl)c1=O [Compound I-124]	7.07	0.371 µM	0.434 µM
CC(C1CC1)N1CCN(c2cc(NC(=O)Cn3cc(-c4cc(C(N)=O)c(O)c(F)c4F)c4c(=O)n(C)cnc43)c(Cl)cn2)[C@@H](C)C1 (stereo partly drawn) [Compound I-393]	7.47	0.266 µM	0.222 µM
CN1CCC2(C1)CN(c1cc(NC(=O)Cn3cc(-c4cc(F)c(O)c(C(N)=O)c4)c4c(=O)n(C)cnc43)c(Cl)cn1)C2 [Compound I-486]	7.52	6.95 µM	10 µM
Cc1nc2c(c(-c3cc(F)c(O)c(C(N)=O)c3)cn2CC(=O)Nc2cc(N3CC(C)(C)N(C)C(C)(C)C3)ncc2Cl)c(=O)n1C [Compound I-250]	7.79	0.0822 µM	0.0902 µM

SMILES	pKd (BCL6 BTB domain)	EC50 [1]	IC50 (Karpas422 cells)
C[C@@H]1CCCN1c1cc(NC(=O)Cn2cc(-c3cc(Cl)c(O)c(C(N)=O)c3)c3c(=O)n(C)cnc32)c(Cl)cn1 [Compound I-135]	7.16	3.01 µM	1.43 µM
C[C@H]1CN(CC2(C(F)(F)F)CC2)CCN1c1cc(NC(=O)Cn2cc(-c3cc(C(N)=O)c(O)c(F)c3F)c3c(=O)n(C)cnc32)c(Cl)cn1 [Compound I-377]	6.68	2.97 µM	8.61 µM
CN1CC2CCC(C1)N2c1cc(NC(=O)Cn2cc(-c3cc(C(N)=O)c(O)c(F)c3F)c3c(=O)n(C)cnc32)c(Cl)cn1 [Compound I-320]	7.32	1.15 µM	0.979 µM
C[C@H]1CN(C)CCN1c1cc(NC(=O)Cn2cc(-c3cc(C(N)=O)c(O)c(Cl)c3F)c3c(=O)n(C)c(C(F)(F)F)nc32)c(Cl)cn1 [Compound I-267]	6.24	2.27 µM	3.79 µM
Cn1cnc2c(c(-c3cc(C(N)=O)c(O)c(Cl)c3F)cn2CC(=O)Nc2cc(N3CCOCC3)ncc2F)c1=O [Compound I-196]	6.49	6.34 µM	10 µM
CC(C)CN1CCN(c2cc(NC(=O)Cn3cc(-c4cc(C(N)=O)c(O)c(F)c4F)c4c(=O)n(C)cnc43)c(Cl)c(F)n2)[C@@H](C)C1 [Compound I-458]	7.25	0.963 µM	3.68 µM
Cn1cnc2c(c(-c3cc(Cl)c(O)c(C(N)=O)c3)cn2CC(=O)Nc2cc(N3CCOCC34CCC4)ncc2Cl)c1=O [Compound I-245]	7.69	0.245 µM	0.182 µM
C[C@H]1COCCN1c1cc(NC(=O)Cn2cc(-c3cc(C(N)=O)c(O)c(F)c3F)c3c(=O)n(C)cnc32)c(Cl)c(F)n1 [Compound I-317]	7.26	0.633 µM	0.467 µM
CC1CN(C)CC(C)N1c1cc(NC(=O)Cn2cc(-c3cc(Cl)c(O)c(C(N)=O)c3)c3c(=O)n(C)cnc32)c(Cl)cn1 (stereo not drawn) [Compound I-340]	7.94	0.0724 µM	0.0759 µM
CCN(C)c1nc2c(c(-c3cc(Cl)c(O)c(C(N)=O)c3)cn2CC(=O)Nc2cc(N3CCOC[C@@H]3C)ncc2Cl)c(=O)n1C [Compound I-269, (S)-3-chloro-5-(7-(2-((5-chloro-2-(3-methylmorpholino)pyridin-4-yl)amino)-2-oxoethyl)-2-(ethyl(methyl)amino)-3-methyl-4-oxo-4,7-dihydro-3H-pyrrolo[2,3-d]pyrimidin-5-yl)-2-hydroxybenzamide]	6.80	8.55 µM	1.7 µM
Cc1nc2c(c(-c3cc(Cl)c(O)c(C(N)=O)c3)cn2CC(=O)Nc2cc(N3CCN(C)CC3)ncc2Cl)c(=O)n1C [Compound I-306]	7.80	0.106 µM	0.265 µM
C[C@H]1CN(CCC(F)(F)F)CCN1c1cc(NC(=O)Cn2cc(-c3cc(C(N)=O)c(O)c(F)c3F)c3c(=O)n(C)cnc32)c(Cl)cn1 [Compound I-453]	7.27	0.41 µM	0.16 µM
CC(C)N1CCN(c2cc(NC(=O)Cn3cc(-c4cc(F)c(O)c(C(N)=O)c4)c4c(=O)n(C)cnc43)c(Cl)cn2)[C@@H](C)C1 [Compound I-295]	8.11	0.14 µM	0.106 µM
Cn1cnc2c(c(-c3cc(Cl)c(O)c(C(N)=O)c3)cn2CC(=O)Nc2cc(N3CC4CC3CN4CC(F)(F)F)ncc2Cl)c1=O (stereo not drawn) [Compound I-362]	7.42	0.226 µM	0.337 µM
C[C@H]1CNCCN1c1cc(NC(=O)Cn2cc(-c3cc(C(N)=O)c(O)c(F)c3F)c3c(=O)n(C)cnc32)c(Cl)cn1 [Compound I-335]	7.61	6.92 µM	5.1 µM
CN1C2CCC1CN(c1cc(NC(=O)Cn3cc(-c4cc(F)c(O)c(C(N)=O)c4)c4c(=O)n(C)cnc43)c(Cl)cn1)C2 [Compound I-283]	7.78	0.222 µM	0.282 µM
Cn1cnc2c(c(-c3cc(Cl)c(O)c(C(N)=O)c3)cn2CC(=O)Nc2ccc([N+](=O)[O-])cc2Cl)c1=O [Compound I-385]	7.42	0.312 µM	0.335 µM
Cn1cnc2c(c(-c3cc(C(N)=O)c(O)c(F)c3F)cn2CC(=O)Nc2cc(NCCCO)nc(F)c2Cl)c1=O [Compound I-481, 5-(7-(2-((3-chloro-2-fluoro-6-((3-hydroxypropyl)amino)pyridin-4-yl)amino)-2-oxoethyl)-3-methyl-4-oxo-4,7-dihydro-3H-pyrrolo[2,3-d]pyrimidin-5-yl)-3,4-difluoro-2-hydroxybenzamide]	7.72	19.4 µM	10 µM
C=C(C)c1nc2c(c(-c3cc(Cl)c(O)c(C(N)=O)c3)cn2CC(=O)Nc2cc(N3CCN(C)C[C@@H]3C)ncc2Cl)c(=O)n1C [Compound I-322]	7.47	3.09 µM	1.19 µM
Cn1cnc2c(c(-c3cc(F)c(O)c(C(N)=O)c3)cn2CC(=O)Nc2cc(N3CCOCC3)ncc2F)c1=O [Compound I-217]	7.58	0.727 µM	0.382 µM
